Source: patent US11285156B2, “Substituted piperazines as KRAS G12C inhibitors” (Amgen Inc., priority 2018, dated 2022)
Where two headings read alike, the source gives them in different places.

What was measured:
[1] = system: Phosphorylation of ERK1/2 in A549 cells; assay: Phospho-ERK1/2 MSD assay in A549 cells; format: cell-based; conditions: Homo sapiens, A549, 2 h, read-out: p-ERK IC50 (2 h, A549; μM)
How it was run: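 Dose-response treatment lasted 2 or 4 h in RPMI 1640/10% FBS at 37 °C. EGF-stimulated (10 ng/mL, 10 min) ERK1/2 phosphorylation was then quantified in cell lysates with a Meso Scale Discovery phospho-ERK1/2 assay.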

[2] = molecular target: GDP-bound KRAS protein (aa 1-169), containing both G12C and C118A amino acid substitutions (Homo sapiens (Human), UniProt P01116, C118A/G12C); assay: Coupled nucleotide exchange assay (SOS-mediated nucleotide exchange, AlphaScreen); format: biochemical; conditions: 5 min compound pre-incubation; for IC50: read-out: Coupled exchange IC50 (5 min; μM)
Chain of GDP-bound KRAS protein (aa 1-169), containing both G12C and C118A amino acid substitutions (P01116 other isoform, or with tags, fused parts or gaps G12C/C118A): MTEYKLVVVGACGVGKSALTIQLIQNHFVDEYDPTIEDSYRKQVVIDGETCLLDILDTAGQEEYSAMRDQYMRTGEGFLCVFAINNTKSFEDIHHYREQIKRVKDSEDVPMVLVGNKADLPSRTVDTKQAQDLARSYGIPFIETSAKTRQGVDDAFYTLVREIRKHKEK

[3] = system: Phosphorylation of ERK1/2 in MIA PaCa-2 cells; assay: Phospho-ERK1/2 MSD assay in MIA PaCa-2 cells; format: cell-based; conditions: Homo sapiens, MIA PaCa-2, 2 h, read-out: p-ERK IC50 (2 h, MiaPaCa-2; μM)
How it was run: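 Phospho-ERK1/2 measured by MSD electrochemiluminescence kit in RIPA lysates of MIA PaCa-2 cells. Cells were treated with compound titrations for 2 or 4 h at 37 °C, 5% CO2, followed by a 10 min pulse of 10 ng/mL EGF.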

[4] = 2 h compound treatment, A549 cells, EGF stimulated
[5] = 2 h compound treatment, MIA PaCa-2 cells, EGF stimulated

Coupled exchange IC50 (5 min; μM) [2] | SMILES | IC50 [1, 4] | IC50 [2] | IC50 [3, 5] | IC50 [1] | IC50 [3]
 | C=CC(=O)N1C[C@H](C)N(c2nc(=O)n(-c3c(C(C)C)ncnc3C(C)C)c3nc(-c4ccc(F)cc4F)c(F)cc23)C[C@H]1C [Example 153, 7-(2,4-Difluorophenyl)-1-(4,6-diisopropylpyrimidin-5-yl)-4-[(2S,5R)-2,5-dimethyl-4-prop-2-enoyl-piperazin-1-yl]-6-fluoro-pyrido[2,3-d]pyrimidin-2-one] | > 7.5 µM | 0.38 µM | 0.264 µM |  | 
 | C=CC(=O)N1C[C@H](C)N(c2nc(=O)n(-c3c(C(C)C)nc(OC)nc3C(C)C)c3nc(-c4ccccc4F)c(Cl)cc23)C[C@H]1C [Example 154, 6-Chloro-1-(4,6-diisopropyl-2-methoxy-pyrimidin-5-yl)-4-[(2S,5R)-2,5-dimethyl-4-prop-2-enoyl-piperazin-1-yl]-7-(2-fluorophenyl)pyrido[2,3-d]pyrimidin-2-one] | 6.96 µM | 0.062 µM | 0.049 µM |  | 
 | C=CC(=O)N1C[C@H](C)N(c2nc(=O)n(-c3c(C(C)C)nc(C#N)nc3C(C)C)c3nc(-c4ccccc4F)c(Cl)cc23)C[C@H]1C [Example 155, 5-[6-Chloro-4-[(2S,5R)-2,5-dimethyl-4-prop-2-enoyl-piperazin-1-yl]-7-(2-fluorophenyl)-2-oxo-pyrido[2,3-d]pyrimidin-1-yl]-4,6-diisopropyl-pyrimidine-2-carbonitrile] | 2.59 µM | 0.104 µM | 0.063 µM |  | 
 | C=CC(=O)N1C[C@H](C)N(c2nc(=O)n(-c3c(C(C)C)nc(OCCOC)nc3C(C)C)c3nc(-c4ccccc4F)c(Cl)cc23)C[C@H]1C [Example 156, 4-((2S,5R)-4-Acryloyl-2,5-dimethylpiperazin-1-yl)-6-chloro-1-(4,6-diisopropyl-2-(2-methoxyethoxy)pyrimidin-5-yl)-7-(2-fluorophenyl)pyrido[2,3-d]pyrimidin-2(1H)-one] | > 7.5 µM | 0.369 µM | 0.148 µM |  | 
 | C=CC(=O)N1C[C@H](C)N(c2nc(=O)n(-c3c(C(C)C)nc(OCCN(C)C)nc3C(C)C)c3nc(-c4ccccc4F)c(Cl)cc23)C[C@H]1C [Example 157, 4-((2S,5R)-4-Acryloyl-2,5-dimethylpiperazin-1-yl)-6-chloro-1-(2-(2-(dimethylamino)ethoxy)-4,6-diisopropylpyrimidin-5-yl)-7-(2-fluorophenyl)pyrido[2,3-d]pyrimidin-2(1H)-one] | > 7.5 µM | 0.064 µM | 0.07 µM |  | 
 | C=CC(=O)N1C[C@H](C)N(c2nc(=O)n(-c3c(C(C)C)nc(S(=O)(=O)CCC)nc3C(C)C)c3nc(-c4ccccc4F)c(Cl)cc23)C[C@H]1C [Example 158, 4-((2S,5R)-4-Acryloyl-2,5-dimethylpiperazin-1-yl)-6-chloro-1-(4,6-diisopropyl-2-(propylsulfonyl)pyrimidin-5-yl)-7-(2-fluorophenyl)pyrido[2,3-d]pyrimidin-2(1H)-one] | 3.83 µM | 0.189 µM | 0.191 µM |  | 
 | C=CC(=O)N1C[C@H](C)N(c2nc(=O)n(-c3c(C(C)C)nc(C=C)nc3C(C)C)c3nc(-c4ccccc4F)c(Cl)cc23)C[C@H]1C [Example 159, 4-((2S,5R)-4-Acryloyl-2,5-dimethylpiperazin-1-yl)-6-chloro-1-(4,6-diisopropyl-2-vinylpyrimidin-5-yl)-7-(2-fluorophenyl)pyrido[2,3-d]pyrimidin-2(1H)-one] | 3.04 µM | 0.046 µM | 0.119 µM |  | 
 | C=CC(=O)N1C[C@H](C)N(c2nc(=O)n(-c3c(C(C)C)nc(CN4CCC4)nc3C(C)C)c3nc(-c4ccccc4F)c(Cl)cc23)C[C@H]1C [Example 161, 1-[2-(Azetidin-1-ylmethyl)-4,6-diisopropyl-pyrimidin-5-yl]-6-chloro-4-[(2S,5R)-2,5-dimethyl-4-prop-2-enoyl-piperazin-1-yl]-7-(2-fluorophenyl)pyrido[2,3-d]pyrimidin-2-one] |  | 0.294 µM |  | > 7.5 µM | 0.061 µM
 | C=CC(=O)N1C[C@H](C)N(c2nc(=O)n(-c3c(C(C)C)nc(CN4CCOCC4)nc3C(C)C)c3nc(-c4ccccc4F)c(Cl)cc23)C[C@H]1C [Example 162, 6-Chloro-1-[4,6-diisopropyl-2-(morpholinomethyl)pyrimidin-5-yl]-4-[(2S,5R)-2,5-dimethyl-4-prop-2-enoyl-piperazin-1-yl]-7-(2-fluorophenyl)pyrido[2,3-d]pyrimidin-2-one] | > 7.5 µM | 0.133 µM | 0.078 µM |  | 
 | C=CC(=O)N1C[C@H](C)N(c2nc(=O)n(-c3c(C(C)C)nc(CN4CCCC4)nc3C(C)C)c3nc(-c4ccccc4F)c(Cl)cc23)C[C@H]1C [Example 163, 6-Chloro-1-[4,6-diisopropyl-2-(pyrrolidin-1-ylmethyl)pyrimidin-5-yl]-4-[(2S,5R)-2,5-dimethyl-4-prop-2-enoyl-piperazin-1-yl]-7-(2-fluorophenyl)pyrido[2,3-d]pyrimidin-2-one] | > 7.5 µM | 0.127 µM | 0.055 µM |  | 
 | C=CC(=O)N1C[C@H](C)N(c2nc(=O)n(-c3c(C(C)C)nc(C)nc3C(C)C)c3nc(-c4ccccc4F)c(Cl)cc23)C[C@H]1C [Example 167, 6-Chloro-1-(4,6-diisopropyl-2-methyl-pyrimidin-5-yl)-4-[(2S,5R)-2,5-dimethyl-4-prop-2-enoyl-piperazin-1-yl]-7-(2-fluorophenyl)pyrido[2,3-d]pyrimidin-2-one] | > 7.5 µM | 0.052 µM | 0.083 µM |  | 
 | C=CC(=O)N1C[C@H](C)N(c2nc(=O)n(-c3c(C(C)C)nc(C4CC4)nc3C(C)C)c3nc(-c4ccccc4F)c(Cl)cc23)C[C@H]1C [Example 168, 6-Chloro-1-(2-cyclopropyl-4,6-diisopropyl-pyrimidin-5-yl)-4-[(2S,5R)-2,5-dimethyl-4-prop-2-enoyl-piperazin-1-yl]-7-(2-fluorophenyl)pyrido[2,3-d]pyrimidin-2-one] | 4.34 µM | 0.096 µM | 0.198 µM |  | 
 | C=CC(=O)N1C[C@H](C)N(c2nc(=O)n(-c3c(C(C)C)nc(CN4CCN(C)CC4)nc3C(C)C)c3nc(-c4ccccc4F)c(Cl)cc23)C[C@H]1C [Example 170, 6-Chloro-1-[4,6-diisopropyl-2-[(4-methylpiperazin-1-yl)methyl]pyrimidin-5-yl]-4-[(2S,5R)-2,5-dimethyl-4-prop-2-enoyl-piperazin-1-yl]-7-(2-fluorophenyl)pyrido[2,3-d]pyrimidin-2-one] | > 7.5 µM | 0.064 µM | 0.077 µM |  | 
 | C=CC(=O)N1C[C@H](C)N(c2nc(=O)n(-c3c(C(C)C)ncnc3C(C)C)c3nc(-c4ccccc4C(F)(F)F)c(Cl)cc23)C[C@H]1C [Example 172, 6-Chloro-1-(4,6-diisopropylpyrimidin-5-yl)-4-[(2S,5R)-2,5-dimethyl-4-prop-2-enoyl-piperazin-1-yl]-7-[2-(trifluoromethyl)phenyl]pyrido[2,3-d]pyrimidin-2-one] | > 7.5 µM | 0.08 µM | 0.099 µM |  | 
0.069 µM | C=CC(=O)N1C[C@H](C)N(c2nc(=O)n(-c3c(C(C)C)ncnc3C(C)C)c3nc(-c4cc(O)ccc4C)c(Cl)cc23)C[C@H]1C [Example 174, 6-Chloro-1-(4,6-diisopropylpyrimidin-5-yl)-4-[(2S,5R)-2,5-dimethyl-4-prop-2-enoyl-piperazin-1-yl]-7-(5-hydroxy-2-methyl-phenyl)pyrido[2,3-d]pyrimidin-2-one] | > 7.5 µM |  | 0.082 µM |  | 
 | C=CC(=O)N1CCN(c2nc(CN3CCOCC3)c(-c3ccccc3C(C)C)c3nc(-c4ccccc4F)c(Cl)cc23)CC1 [Example 181, 1-(4-(3-Chloro-2-(2-fluorophenyl)-8-(2-isopropylphenyl)-7-(morpholinomethyl)-1,6-naphthyridin-5-yl)piperazin-1-yl)prop-2-en-1-one] | > 7.5 µM | 4.53 µM | 10 µM |  | 
 | C=CC(=O)N1C[C@H](C)N(c2nc(=N)n(-c3ccccc3C(C)C)c3nc(-c4ccccc4F)c(Cl)cc23)C[C@H]1C [Example 185, 1-((2R,5S)-4-(6-Chloro-7-(2-fluorophenyl)-2-imino-1-(2-isopropylphenyl)-1,2-dihydropyrido[2,3-d]pyrimidin-4-yl)-2,5-dimethylpiperazin-1-yl)prop-2-en-1-one] | > 7.5 µM | 0.055 µM | 0.08 µM |  | 
 | C=CC(=O)N1C[C@H](C)N(c2nc(=O)n(-c3ccccc3C(C)C)c3nc(-c4ccccc4F)c(Cl)cc23)C[C@H]1C [Example 186, 4-((2S,5R)-4-Acryloyl-2,5-dimethylpiperazin-1-yl)-6-chloro-7-(2-fluorophenyl)-1-(2-isopropylphenyl)pyrido[2,3-d]pyrimidin-2(1H)-one] | > 7.5 µM | 0.093 µM | 0.199 µM |  | 
0.09 µM | C=CC(=O)N1C[C@H](C)N(c2nc(=O)n(-c3c(C(C)C)nc(N(C)C(C)=O)nc3C(C)C)c3nc(-c4ccccc4F)c(Cl)cc23)C[C@H]1C [Example 187, N-[5-[6-Chloro-4-[(2S,5R)-2,5-dimethyl-4-prop-2-enoyl-piperazin-1-yl]-7-(2-fluorophenyl)-2-oxo-pyrido[2,3-d]pyrimidin-1-yl]-4,6-diisopropyl-pyrimidin-2-yl]-N-methyl-acetamide] | 0.317 µM |  | 0.081 µM |  | 
